The values below come from publication PMC6988736 (Bioorganic & medicinal chemistry letters, 2017).

pIC50: −log10 of the molar value. Where two headings read alike, the source gives them in different places.

The target in experiment [1] is T1, hTRPV1 (Homo sapiens, UniProt Q8NER1). The experiment can be described thus: hTRPV1 antagonism, inhibition of activation by capsaicin. It is filed as cell-based. As to conditions: for hTRPV1 antagonism toward capsaicin (in words): hTRPV1 in CHO cells, capsaicin 100 nM; for inhibition at 5 µM: CHO, read-out: inhibition% at 5 μM.
T1 sequence (Q8NER1 whole entry): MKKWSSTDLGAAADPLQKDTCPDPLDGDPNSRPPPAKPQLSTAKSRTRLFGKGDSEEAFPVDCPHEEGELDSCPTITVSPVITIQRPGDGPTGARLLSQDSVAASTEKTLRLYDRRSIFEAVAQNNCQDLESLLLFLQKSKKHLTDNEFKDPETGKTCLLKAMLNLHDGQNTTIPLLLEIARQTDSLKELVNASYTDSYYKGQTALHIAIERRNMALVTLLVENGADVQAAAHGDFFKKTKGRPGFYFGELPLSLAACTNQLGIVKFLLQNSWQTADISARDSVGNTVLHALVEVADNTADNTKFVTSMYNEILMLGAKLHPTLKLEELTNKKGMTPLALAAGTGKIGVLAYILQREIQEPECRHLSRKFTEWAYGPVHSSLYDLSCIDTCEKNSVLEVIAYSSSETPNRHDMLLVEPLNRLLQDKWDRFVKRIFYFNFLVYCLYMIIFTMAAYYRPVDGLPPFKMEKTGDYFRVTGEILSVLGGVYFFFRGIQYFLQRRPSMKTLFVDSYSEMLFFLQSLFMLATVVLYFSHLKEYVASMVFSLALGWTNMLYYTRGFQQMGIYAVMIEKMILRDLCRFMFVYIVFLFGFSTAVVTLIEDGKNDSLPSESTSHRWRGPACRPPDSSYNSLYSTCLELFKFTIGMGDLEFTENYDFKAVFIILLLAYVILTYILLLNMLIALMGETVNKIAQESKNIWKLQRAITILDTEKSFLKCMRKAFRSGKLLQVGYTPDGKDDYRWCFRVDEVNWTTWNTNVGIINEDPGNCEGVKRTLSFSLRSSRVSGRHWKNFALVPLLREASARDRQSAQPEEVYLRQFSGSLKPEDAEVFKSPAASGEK
Experiment [2] concerns the target T1, hTRPV1. Kind of experiment: hTRPV1 antagonism, activation by heat. The format is cell-based.
The target in experiment [3] is T1, hTRPV1. Particulars: read-out: heat 45 °C, IC50; hTRPV1, activator heat 45 °C; previous lead; ref [9]; cited from earlier work.

As for `COc1ccc(-n2nc(C(C)(C)C)cc2CNC(=O)C(C)c2ccc(NS(C)(=O)=O)c(F)c2)cc1` (stereo not shown) [Compound 9], the “hTRPV1 antagonism toward capsaicin (in words)” value on hTRPV1 [1] is listed as “dramatic reduction in activity”. Consider `CC(C)(C)c1cc(CNC(=O)C(c2ccc(NS(C)(=O)=O)c(F)c2)C2CCCCC2)n(-c2cccc(Cl)c2)n1` (stereo not shown) [Compound 17], for which, at hTRPV1 [1], the inhibition at 5 µM turned out to be 46%. Consider `C[C@H](C(=O)NCc1cc(C(C)(C)C)nn1-c1ccc(F)c(Cl)c1)c1ccc(NS(C)(=O)=O)c(F)c1` [Compound 14S], for which the “hTRPV1 antagonism toward capsaicin (in words)” value on hTRPV1 [1] is “high potency”.

Turning to `Cc1ccc(C(C(=O)NCc2cc(C(C)(C)C)nn2-c2cccc(Cl)c2)c2ccc(NS(C)(=O)=O)c(F)c2)cc1` (stereo not shown) [Compound 18], the inhibition at 5 µM at hTRPV1 [1] was 12%. For `CC(C(=O)NCc1cc(C(C)(C)C)nn1-c1ccc(C(C)(C)C)cc1)c1ccc(NS(C)(=O)=O)c(F)c1` (stereo not shown) [Compound 11], the “hTRPV1 antagonism toward capsaicin (in words)” value on hTRPV1 [1] was “dramatic reduction in activity”. As to `C[C@H](C(=O)NCc1cc(C(C)(C)C)nn1-c1cccc(Cl)c1)c1ccc(NS(C)(=O)=O)c(F)c1` [Compound 13S], the pIC50 at hTRPV1 [2] was below 5.30. On to `CC(C)(C)c1cc(CNC(=O)C(c2cccc(F)c2)c2ccc(NS(C)(=O)=O)c(F)c2)n(-c2cccc(Cl)c2)n1` (stereo not shown) [Compound 19], for which the inhibition at 5 µM on hTRPV1 [1] was 49%. For the compound `Cc1ccc(/C=C/c2ccc(-n3nc(C(C)(C)C)cc3CNC(=O)C(C)c3ccc(NS(C)(=O)=O)c(F)c3)cc2)cc1` (stereo not shown) [Compound 12], the “hTRPV1 antagonism toward capsaicin (in words)” value at hTRPV1 [1] is “dramatic reduction in activity”. As for `CC(C(=O)NCc1cc(C(C)(C)C)nn1-c1ccc(F)c(Cl)c1)c1ccc(NS(C)(=O)=O)c(F)c1` (stereo not shown) [Compound 14], on hTRPV1 [1], the “hTRPV1 antagonism toward capsaicin (in words)” value is recorded as “high potency”. Take `CC1CCN(c2nc(C(F)(F)F)ccc2CNC(=O)[C@@H](C)c2ccc(NS(C)(=O)=O)c(F)c2)CC1` [GRT12360]: the pIC50 at hTRPV1 [3] is 9.10.
